The target in data set [1] is T1, Serine/threonine-protein kinase pim-2 (Homo sapiens, UniProt Q9P1W9). The experiment in a line: Inhibition of Pim2.
Data set [2] deals with Casein kinase II subunit alpha (Homo sapiens) (UniProt P68400). The experiment in a line: Inhibition of CK2alpha1 at 10 uM.
The target of data set [3] is Casein kinase II subunit alpha' (Homo sapiens) (UniProt P19784). Nature of the data set: Inhibition of CK2alpha2 at 10 uM.
Data set [4] can be described thus: Permeability from basolateral to apical side of human Caco-2 cells at 50 uM by LC/MS-MS analysis. It counts as ADME, cell-based. The note with it: read-out: permeability. In general terms: Passage across Caco-2 layers is used to estimate intestinal permeability.
Data set [5] is described as follows: Metabolic stability in human liver microsomes assessed as half life by HPLC. It counts as ADME, Microsome. In general terms: Liver microsomes are a subcellular fraction often used to study metabolism.
Data set [6] in a line: Solubility at pH 7.4 after 48 hrs by HPLC. In kind it is physicochemical. The note with it: buffer.
Data set [7] is described as follows: Solubility at pH 2.0 after 48 hrs by HPLC. In kind it is physicochemical. To be noted: buffer.
The nature of data set [8]: Permeability from apical to basolateral side of human Caco-2 cells at 50 uM by LC/MS-MS analysis. It counts as ADME, cell-based. To be noted: read-out: permeability.
Data set [9] deals with T2, Serine/threonine-protein kinase pim-1 (Homo sapiens, UniProt P11309). Nature of the data set: Inhibition of Pim1 in presence of 1 uM ATP.
In data set [10] the target is T1, Serine/threonine-protein kinase pim-2. Nature of the data set: Inhibition of Pim2 in presence of 1 uM ATP.
Data set [11] has as its target T2, Serine/threonine-protein kinase pim-1. Nature of the data set: Inhibition of Pim1 after 15 mins by scintillation counting-based competition assay in presence of 100 uM [gamma33P]ATP.

One may read the IC50 as the concentration needed to halve the response being measured. As to `O=C(O)/C=C/c1cccc(-c2cncc(NCC3CCNCC3)n2)c1`, in data set [1], 25 nM corresponded to half-maximal inhibition (IC50). By inhibition is commonly meant the relative decrease from the control value, in per cent. A low value points to a weak effect. In data set [1], `COC(=O)/C=C/c1cccc(-c2cncc(N3CCCN(C)CC3)n2)c1` gave an IC50 of over 8000 nM. The inhibition in data set [2] is 14%; in data set [3], 7%. A word on the half-life: it is how long it takes for the measured level to halve. A word on the solubility: it is how much of the substance goes into solution per volume. A lower solubility goes with little dissolved substance. For `CN1CCCN(c2cncc(-c3cccc(/C=C/C(=O)O)c3)n2)CC1`, in data set [4], the Papp B→A at 50 µM worked out at 3.01 ×10⁻⁶ cm/s. Besides, the half-life in data set [5] is 2.65 h. Further, the solubility at 48 h in data set [6] and in data set [7] was over 2000 µg/mL each time. Moreover, in data set [8], the Papp A→B at 50 µM was 2.73 ×10⁻⁶ cm/s.

In data set [1], `NCC1CCN(c2cncc(-c3cccc(/C=C/C(=O)O)c3)n2)CC1` yielded an IC50 of 17 nM. In the case of `NCCCCNc1cncc(-c2cccc(/C=C/C(=O)O)c2)n1`, the values for the IC50 in [9] and in data set [10] were 33 nM and 22 nM, respectively. Turning to `O=C(O)/C=C/c1cccc(-c2cnccn2)c1`, the IC50 in data set [1] turned out to be 2200 nM. Regarding `COCCCNc1cncc(-c2cccc(/C=C/C(=O)O)c2)n1`, the IC50 amounted to 370 nM in data set [9] and 480 nM in [10]. Consider `O=C(O)/C=C/c1cccc(-c2cncc(N3CCCNCC3)n2)c1`, for which the half-inhibitory concentration (IC50) in [1] came to 10 nM. Regarding `CN1CCCN(c2cccc(-c3cccc(/C=C/C(=O)O)c3)n2)CC1`, the IC50 in data set [1] turned out to be 46 nM; in data set [9], 50 nM.

In the case of `CN1CCCN(c2cncc(-c3cccc(/C=C/C(N)=O)c3)n2)CC1`, the inhibition in data set [2] worked out at 42%; in data set [3] it was 36%.

`O=C(O)c1ccc(-c2cnc3ccc(NCC4CC4)nn23)cc1`: in [11], the IC50 turned out to be 120 nM.

Values taken from ChEMBL document CHEMBL1153342 (J Med Chem, 2009).
